# Where two headings read alike, the source gives them in different places.
# Columns and labels:
# A. baumannii A489 [1] = assay: Preliminary MBC without and with sub-inhibitory polymyxin B (Example 4); format: cell-based, Acinetobacter baumannii; settings: Acinetobacter baumannii, preliminary MBC
# A. baumannii A14 [2] = assay: MIC without and with sub-inhibitory polymyxin B (Example 4); format: cell-based, Acinetobacter baumannii; settings: 1st experiment
# A. baumannii J2 [3] = assay: as above; format: cell-based, Acinetobacter baumannii; settings: for MIC without PB/MIC + PB: A. baumannii J2; for MIC: Acinetobacter baumannii
# [4] = test system: Acinetobacter sp. (H064200250); assay: Preliminary MBC without and with sub-inhibitory polymyxin B (Example 4); format: cell-based; settings: Acinetobacter, preliminary MBC
# Summary of the method: (§1)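 Plates were incubated for 18-20 hours at 37° C. MBC was taken as the lowest concentration giving colony growth ca. 90% below the positive control, typically where only single colonies or none appeared.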
# A. baumannii A489 [5] = assay: MIC without and with sub-inhibitory polymyxin B (Example 4); format: cell-based, Acinetobacter baumannii; settings: for MIC without PB/MIC + PB: A. baumannii A489; for MIC: Acinetobacter baumannii
# A. baumannii NCTC 13301 [6] = assay: as above; format: cell-based, Acinetobacter baumannii; settings: +[…] PB, 2nd experiment
# A. baumannii A329 [7] = assay: Preliminary MBC without and with sub-inhibitory polymyxin B (Example 4); format: cell-based, Acinetobacter baumannii; settings: Acinetobacter baumannii, A329, A. baumannii A329, +0.06 μg/ml PB, 2nd experiment, read-out: MBC
# [8] = test system: strains of A. baumannii and one strain of Acinetobacter sp.; assay: MIC with sub-inhibitory concentrations (0.25x MIC) of polymyxin B, panel of Acinetobacter strains (Example 4); format: cell-based
# [9] = test system: Acinetobacter sp. (H064200250); assay: MIC without and with sub-inhibitory polymyxin B (Example 4); format: cell-based; settings: for MIC: Acinetobacter
# A. baumannii A387 = assay: as above; format: cell-based, Acinetobacter baumannii; settings: for MIC without PB/MIC + PB: A. baumannii A387; for MIC: Acinetobacter baumannii
# A. baumannii NCTC 13301 [10] = assay: Preliminary MBC without and with sub-inhibitory polymyxin B (Example 4); format: cell-based, Acinetobacter baumannii; settings: Acinetobacter baumannii
# Summary of the method: as §1
# A. baumannii A390 [11] = assay: as above; format: cell-based, Acinetobacter baumannii; settings: Acinetobacter baumannii, A390, A. baumannii A390, +0.06 μg/ml PB, 2nd experiment, read-out: MBC
# Summary of the method: as §1
# A. baumannii A14 [12] = assay: as above; format: cell-based, Acinetobacter baumannii; settings: 2nd experiment
# Summary of the method: as §1
# A. baumannii A473 [13] = assay: as above; format: cell-based, Acinetobacter baumannii; settings: Acinetobacter baumannii, A473, A. baumannii A473, +0.06 μg/ml PB, 2nd experiment, read-out: MBC
# Summary of the method: as §1
# A. baumannii ATCC 19606 [14] = assay: MIC without and with sub-inhibitory polymyxin B (Example 4); format: cell-based, Acinetobacter baumannii; settings: for MIC without PB/MIC + PB: A. baumannii ATCC 19606; for MIC: Acinetobacter baumannii
# A. baumannii J2 [15] = assay: Preliminary MBC without and with sub-inhibitory polymyxin B (Example 4); format: cell-based, Acinetobacter baumannii; settings: Acinetobacter baumannii, preliminary MBC
# A. baumannii NCTC 13301 [16] = assay: MIC without and with sub-inhibitory polymyxin B (Example 4); format: cell-based, Acinetobacter baumannii
# A. baumannii A329 [17] = assay: as above; format: cell-based, Acinetobacter baumannii; settings: +0.06 μg/ml PB, 2nd experiment
# A. baumannii A14 [18] = assay: Preliminary MBC without and with sub-inhibitory polymyxin B (Example 4); format: cell-based, Acinetobacter baumannii; settings: Acinetobacter baumannii
# A. baumannii A14 [19] = assay: MIC without and with sub-inhibitory polymyxin B (Example 4); format: cell-based, Acinetobacter baumannii; settings: 2nd experiment
# A. baumannii ATCC 19606 [20] = assay: Preliminary MBC without and with sub-inhibitory polymyxin B (Example 4); format: cell-based, Acinetobacter baumannii; settings: Acinetobacter baumannii
# A. baumannii A390 [21] = assay: MIC without and with sub-inhibitory polymyxin B (Example 4); format: cell-based, Acinetobacter baumannii; settings: +0.06 μg/ml PB, 2nd experiment
# A. baumannii A472 = assay: Preliminary MBC without and with sub-inhibitory polymyxin B (Example 4); format: cell-based, Acinetobacter baumannii; settings: Acinetobacter baumannii, preliminary MBC
# A. baumannii A473 [22] = assay: MIC without and with sub-inhibitory polymyxin B (Example 4); format: cell-based, Acinetobacter baumannii; settings: +0.06 μg/ml PB, 2nd experiment
# [23] = ratio, PB 0.06 μg/ml, 1st experiment
# [24] = A. baumannii A14, +0.06 μg/ml PB
structure (smiles),measurement,setting,value
"Cc1c(-c2ccc(N)cc2)c(F)cn2c(=O)c(C(=O)O)cc(C3CC3)c12 [Compound 7, 8-(4-amino-phenyl)-1-cyclopropyl-7-fluoro-9-methyl-4-oxo-quinolizine-3-carboxylic acid]",MBC,"A. baumannii A489 [1]; A489, A. baumannii A489, +[…] PB, 2nd experiment, read-out: MBC",≤ 0.03 µg/mL
same,MBC,"A. baumannii A489 [1]; A489, read-out: MBC +[…] PB, A. baumannii A489, +[…] polymyxin B, 1st experiment",≤ 0.03 µg/mL
same,MIC +0.06 μg/ml PB,A. baumannii A14 [2]; +0.06 μg/ml polymyxin B,1 µg/mL
same,MIC without PB/MIC + PB,"A. baumannii A14 [2]; ratio, PB 0.06 μg/ml",32
same,MIC without PB/MIC + PB,"A. baumannii J2 [3]; +[…] PB, 2nd experiment",≥128
same,MIC without PB/MIC + PB,"A. baumannii J2 [3]; ratio, PB […], 1st experiment",≥512
same,MIC,"A. baumannii J2 [3]; J2, A. baumannii J2, +[…] PB, 2nd experiment, read-out: MIC",≤ 0.03 µg/mL
same,MIC,"A. baumannii J2 [3]; J2, read-out: MIC +[…] PB, A. baumannii J2, +[…] polymyxin B, 1st experiment",≤ 0.03 µg/mL
same,MBC,"[4]; Acinetobacter spp. H064200250 (OXA51), +[…] PB, 2nd experiment, read-out: MBC",≤ 0.03 µg/mL
same,MBC,"[4]; read-out: MBC +[…] PB, Acinetobacter spp. H064200250, +[…] polymyxin B, 1st experiment",0.25 µg/mL
same,MIC without PB/MIC + PB,"A. baumannii A489 [5]; +[…] PB, 2nd experiment",≥256
same,MIC without PB/MIC + PB,"A. baumannii A489 [5]; ratio, PB […], 1st experiment",≥256
same,MIC,"A. baumannii A489 [5]; A489, A. baumannii A489, +[…] PB, 2nd experiment, read-out: MIC",≤ 0.03 µg/mL
same,MIC,"A. baumannii A489 [5]; A489, read-out: MIC +[…] PB, A. baumannii A489, +[…] polymyxin B, 1st experiment",≤ 0.03 µg/mL
same,MIC without PB/MIC + PB,A. baumannii NCTC 13301 [6]; A. baumannii NCTC 13301,≥512
same,MIC,"A. baumannii NCTC 13301 [6]; Acinetobacter baumannii, NCTC13301, A. baumannii NCTC 13301, read-out: MIC",≤ 0.03 µg/mL
same,MBC,A. baumannii A329 [7],2 µg/mL
same,"MIC range with PB (0.25x MIC) Oct. 1, 2008 n = 8","[8]; 1st experiment, […] polymyxin B, ATCC 19606, A329, A390 and A473 not taken",≤0.03 to 1 µg/mL
same,"MIC range with PB (0.25x MIC) Oct. 14, 2008 n = 11","[8]; 2nd experiment, 0.06 μg/ml polymyxin B, all strains except the ATCC strain",≤0.03 to 2 µg/mL
same,MIC without PB/MIC + PB,"[9]; Acinetobacter spp. H064200250 (OXA51), +[…] PB, 2nd experiment",≥512
same,MIC without PB/MIC + PB,"[9]; Acinetobacter spp. H064200250, ratio, PB […], 1st experiment",32
same,MIC,"[9]; Acinetobacter spp. H064200250 (OXA51), +[…] PB, 2nd experiment, read-out: MIC",≤ 0.03 µg/mL
same,MIC,"[9]; read-out: MIC +[…] PB, Acinetobacter spp. H064200250, +[…] polymyxin B, 1st experiment",0.25 µg/mL
same,MIC without PB/MIC + PB,"A. baumannii A387; +0.06 μg/ml PB, 2nd experiment",≥64
same,MIC without PB/MIC + PB,A. baumannii A387; [23],≥64
same,MIC,"A. baumannii A387; A387, A. baumannii A387, +0.06 μg/ml PB, 2nd experiment, read-out: MIC",≤ 0.03 µg/mL
same,MIC,"A. baumannii A387; A387, read-out: MIC +0.06 μg/ml PB, A. baumannii A387, +0.06 μg/ml polymyxin B, 1st experiment",≤ 0.03 µg/mL
same,MBC,"A. baumannii NCTC 13301 [10]; NCTC13301, A. baumannii NCTC 13301, +[…] PB, preliminary MBC, 2nd experiment, read-out: MBC",≤ 0.03 µg/mL
same,MBC,"A. baumannii NCTC 13301 [10]; NCTC13301, read-out: MBC +[…] PB",0.06 µg/mL
same,MBC,A. baumannii A390 [11],0.125 µg/mL
same,MBC,A. baumannii A14 [12]; [24],2 µg/mL
same,MBC,"A. baumannii A14 [12]; Acinetobacter baumannii, A14, A. baumannii A14, without PB, read-out: MBC",16 µg/mL
same,MBC,A. baumannii A473 [13],0.06 µg/mL
same,MIC without PB/MIC + PB,"A. baumannii ATCC 19606 [14]; +0.06 μg/ml PB, 2nd experiment",≥8
same,MIC without PB/MIC + PB,A. baumannii ATCC 19606 [14]; [23],≥16
same,MIC,"A. baumannii ATCC 19606 [14]; ATCC19606, A. baumannii ATCC 19606, +0.06 μg/ml PB, 2nd experiment, read-out: MIC",≤ 0.03 µg/mL
same,MIC,"A. baumannii ATCC 19606 [14]; ATCC19606, read-out: MIC +0.06 μg/ml PB, A. baumannii ATCC 19606, +0.06 μg/ml polymyxin B, 1st experiment",≤ 0.03 µg/mL
same,MBC,"A. baumannii J2 [15]; J2, A. baumannii J2, +[…] PB, 2nd experiment, read-out: MBC",≤ 0.03 µg/mL
same,MBC,"A. baumannii J2 [15]; J2, read-out: MBC +[…] PB, A. baumannii J2, +[…] polymyxin B, 1st experiment",≤ 0.03 µg/mL
same,MIC without PB/MIC + PB,"A. baumannii NCTC 13301 [16]; A. baumannii NCTC 13301, ratio, PB […], 1st experiment",256
same,MIC,"A. baumannii NCTC 13301 [16]; Acinetobacter baumannii, NCTC13301, read-out: MIC +[…] PB",0.06 µg/mL
same,MIC without PB/MIC + PB,A. baumannii A329 [17]; A. baumannii A329,8
same,MIC,"A. baumannii A329 [17]; Acinetobacter baumannii, A329, A. baumannii A329, read-out: MIC",2 µg/mL
same,MBC,"A. baumannii A14 [18]; A14, read-out: MBC +0.06 μg/ml PB",1 µg/mL
same,MBC,"A. baumannii A14 [18]; A. baumannii A14, without polymyxin B, preliminary MBC, 1st experiment, read-out: MBC without PB",16 µg/mL
same,MIC,A. baumannii A14 [19]; [24],2 µg/mL
same,MIC without PB/MIC + PB,A. baumannii A14 [19]; [24],8
same,MIC,"A. baumannii A14 [19]; Acinetobacter baumannii, A14, A. baumannii A14, without PB, read-out: MIC",16 µg/mL
same,MBC,"A. baumannii ATCC 19606 [20]; ATCC19606, A. baumannii ATCC 19606, +0.06 μg/ml PB, 2nd experiment, read-out: MBC",≤ 0.03 µg/mL
same,MBC,"A. baumannii ATCC 19606 [20]; ATCC19606, read-out: MBC +0.06 μg/ml PB, A. baumannii ATCC 19606, +0.06 μg/ml polymyxin B, 1st experiment",≤ 0.03 µg/mL
same,MIC without PB/MIC + PB,A. baumannii A390 [21]; A. baumannii A390,128
same,MIC,"A. baumannii A390 [21]; Acinetobacter baumannii, A390, A. baumannii A390, read-out: MIC",0.125 µg/mL
same,MBC,"A. baumannii A472; A472, A. baumannii A472, +[…] PB, 2nd experiment, read-out: MBC",≤ 0.03 µg/mL
same,MBC,"A. baumannii A472; A472, read-out: MBC +[…] PB, A. baumannii A472, +[…] polymyxin B, 1st experiment",≤ 0.03 µg/mL
same,MIC without PB/MIC + PB,A. baumannii A473 [22]; A. baumannii A473,64
same,MIC,"A. baumannii A473 [22]; Acinetobacter baumannii, A473, A. baumannii A473, read-out: MIC",0.06 µg/mL
